How the values were obtained:
serum cytokines = assay: Continuous infusion of ghrelin analogues in 5/6 nephrectomized rats: serum cytokines; type: in vivo; conditions: 150 ηmol/kg/day s.c. osmotic mini-pump; for change of serum IL-10 relative to the nephrectomy/saline group: CKD rats; for serum GM-CSF / serum IL-1-α (second listing) / serum IL-1α / serum IL-6 / serum IL-10 (anti-inflammatory cytokine) / serum TNF-α: nephrectomized rats
Protocol: (§1) F344/NTacfBR male rats (Taconic Farms, Inc., Germantown, N.Y., U.S.A.) were housed two to a cage, fed rat chow (diet 5001, Purina Mills, Inc., St. Louis, Mo., U.S.A.) and acclimated for at least three days prior to use.
(§2) A 5/6 nephrectomy was performed in two stages. The test subjects were initially anesthetized with standard rat cocktail and placed prone in a clean environment. A 1 cm posterior incision was made on the right flank through which the right kidney was located. For animals undergoing nephrectomy, the renal capsule was removed and the upper and lower third of the kidney was transected and the resultant wound cauterized leaving the middle third of the kidney with the renal artery and vein intact. For animals receiving a sham operation, the renal capsule was opened up and cauterized to simulate the manipulations performed in the nephrectomy. The external surgical wounds were closed by suturing and the test subject was isolated to facilitate recovery.
(§3) Nine days following the initial surgery, the animals were again anesthetized and placed prone in the surgical area. A 1 cm incision was made on the left side of the subject's abdomen and the left kidney was isolated. For animals undergoing nephrectomy, the renal capsule was removed and the vasculature was tied off by suturing. The vascular bundle was then transected distal to the suture and the entire kidney removed. Any residual bleeding was cauterized. For animals in the sham group, the renal capsule was removed and cauterized. The external surgical wounds were closed with suture. While still under anesthesia, osmotic mini-pumps were placed in all test subjects. A 1 cm incision was made in the midline overlying the posterior thorax at the level of the forelimbs and the underlying sub-cutaneous space was opened via blunt dissection. The osmotic minipumps were placed inside and the incision and closed with suture. This procedure marked the first day (“Day 0”) of treatment.
(§4) Each compound was dissolved in vehicle solution (2% inactivated rat serum, 5% Tween-80) sonicated and filtered through a […] syringe filter.
Rat serum samples were collected and tested for cytokines IL-1α, IL-1β, IL-2, IL-4, IL-6, IL-10, GM-CSF, INF-γ and TNF-α using a Bio-Plex rat cytokine 9-Plex assay (Bio-Rad Laboratories, Hercules, Calif., U.S.A.) according to the manufacturer's instructions for use thereof.
The pre-mixed standards were reconstituted in 0.5 ml of a Bio-Plex […] serum standard diluent generating a stock concentration of 50,000 pg/ml for each cytokine. The standard stock was serially diluted in the Bio-Plex rat serum standard diluent to generate eight points for a standard curve. The assay was performed in a 96 well filtration plate supplied with the assay kit. Pre-mixed beads (50 μl) coated with target capture antibodies were transferred to each well of the filtration plate and washed twice with Bio-Plex wash buffer. The samples were diluted (1:4) in the Bio-Plex serum sample diluent. Pre-mixed standards or diluted samples (50 μl) were added to each well containing washed beads. The plate was shaken and incubated at room temperature for thirty minutes at a low speed (300 rpm). After incubation and washing, pre-mixed biotin conjugated detection antibodies were added to each of the wells. The plate was thereafter incubated for approximately thirty minutes and shaken at a low speed (300 rpm). After incubation and washing, strepavidin-PE were added to each well. The incubation was terminated after shaking for ten minutes at room temperature. After washing, the beads were re-suspended in 125 μl of Bio-Plex assay buffer. Beads were read on the Bio-Plex suspension array system (Bio-Rad Laboratories, Hercules, Calif., U.S.A.). The accumulated data was analyzed using Bio-Plex Manager software version 3.0 with 5 PL curve fitting.
One-way ANOVA was used to determine differences among the nephrectomy and sham groups using a Bonferoni post-hoc test; P<0.05 was considered significant. […]

[1] = test system: human peripheral blood monocytes; assay: LPS/cytokine assay in human peripheral blood mononuclear cells; type: cell-based; conditions: 30 minutes pre-incubation, LPS 100 ηg/ml, 6 hours; ELISA
Protocol: Human Peripheral Blood Mononuclear Cells (cat #7200) were procured for the assay (Seracare Diagnostics, Gaithersburg, Md., U.S.A.). Frozen vials were thawed and washed once with Phosphate Buffered Saline (Thermo Fisher Scientific, Inc., Waltham, Mass., U.S.A.). Cells were then counted and plated into 96-well dishes. […] Plates were analyzed with a Spectramax® Reader using Softmax Pro software (Spectramax, Inc., Sunnyvale, Calif., U.S.A.).

3T3-L1 adipocytes = assay: In vitro cytokine lipolysis assay in 3T3-L1 adipocytes (TNF-α induced lipolysis, glycerol content); type: cell-based; conditions: 1, 10 or 100 ηM, 10 minutes pre-treatment; 20 ηg/ml recombinant murine TNF-α, 24 hours
Protocol: The claimed compounds were tested for their ability to ameliorate cytokine levels. […] In addition, it has been determined that extracellular glucose is required for TNF-α mediated adipocyte lipolysis (Green, A. et al., Diabetes, (2004), 53 (1):74-81). Glycerol, generated by triglyceride breakdown, is released into the extracellular space through aquaporin adipose. Extracellular glycerol is easily assayed by incubation with glycerol kinase (to produce glycerol phosphate), glycerol phosphate oxidase (to produce H2O2), and horseradish peroxidase in the presence of a calorimetric substrate. As such, free glycerol can be assayed as a marker for adipolysis.
In the assay protocol, 3T3-L1 adipocytes were permeabilized and preincubated with the ghrelin analogues of the present invention. In particular, 3T3-L1 preadipocytes were obtained from 3T3-L1 fibroblasts (ATCC Deposit No. CL-173 described in U.S. Pat. No. 4,003,789). […]
The glycerol content was determined using an Adipolysis Assay Kit (Millipore Corporation, Temecula, Calif., U.S.A.).

LPS-induced endotoxemia = assay: In vivo LPS/cytokine assay in a mouse model; set-up: species or system mice; conditions: 5 and 10 nmoles i.p. 10 minutes prior to 5 μg LPS i.p.; serum 2 hours post-LPS
Protocol: In an effort to examine the ability of the novel ligands of native ghrelin of the instant application to modulate inflammatory cytokine expression in vivo, mice were treated with ghrelin prior to an LPS administration.
Male 22-24 g CD1 mice (Charles River Laboratories, Wilmington, Mass., U.S.A.) were used.
Mice were sacrificed 2 hours post-LPS challenge and serum was collected via heart puncture and stored −80° C.
Mouse serum was used with Lincoplex™ custom 7-plex immunoassay for TNF-α (FIG. 3), IL-1β, IL-6 (FIG. 6), IL-10 and GM-CSF (Linco Research, Inc., St. Charles, Mo., U.S.A.). The assay was performed according to the manufacturer's instructions. Plates were run on a Luminex® 200 analyzer (Luminex, Austin, Tex., U.S.A.) using Masterplex CT™ v1.0 software for acquisition and Masterplex™ QT v2.5 software for analysis (MiraiBio, Hitachi Software Engineering Co., Yokohama, JP).

[2] = test system: IL-1β and IL-1RI gene expression in the hypothalamus and brainstem; assay: Continuous infusion in 5/6 nephrectomized rats: central inflammatory transcripts; type: in vivo; conditions: Sham/Saline 1.00
Protocol: as §1, §2, §3, §4
After sacrifice, blood, brain, stomach and muscle were collected. A subset of the rats had their hypothalami dissected out, preserved in RNAlater solution (Applied Biosystems, Inc., Foster City, Calif., U.S.A.) and stored at −70° C. for extraction of RNA and RT-PCR analysis. A subset of the rats had their hypothalami and brainstems dissected out, preserved in RNAlater solution and stored at −70° C. for extraction of RNA and RT-PCR analysis. Hypothalamic blocks were dissected by making coronal transections at the optic chiasm and at the intersection between the hypothalamus and the mammalary bodies and sagital transections along the optic tracks. Cortex was then removed at the level of the corpus callosom. Brainstem blocks were dissected by removal of the cerebellum and coronal transections at the rostral border of the pons and at the spinal cord.
One-way ANOVA was used to determine differences among the nephrectomy and sham groups using a Bonferoni post-hoc test; P<0.05 was considered significant. In the case of the serum cytokines, each individual set of data was considered by ANOVA and the composite of all of the cytokine levels were considered together after normalizing all levels to the Sham/Saline group using a mixed model analysis for a trend for cytokines values among the different groups. This model takes into account the propensity of some animals to have higher or lower cytokine levels across all of the different cytokines and accounts for within-sample variability.

TNBS-induced colitis [3] = assay: Acute colon inflammation model (TNBS-induced colitis); type: in vivo, mice
Protocol: In an effort to examine the ability of the novel ligands of native ghrelin of the instant application to ameliorate inflammation of the colon in vivo, inflammation was induced in a mouse model and thereafter said subjects were treated with a novel ghrelin analogue of the instant application.
(§5) Male SJL mice (Charles River Laboratories, Wilmington, Mass., U.S.A.) approximately 5 to 6 weeks of age were employed. The guidelines proposed by the committee for the Care of Laboratory Animal Resources Commission of Life Sciences-National Research Council were followed to minimize animal pain and distress. Each animal received rodent laboratory chow and ad libitum water.
Acute colon inflammation was induced in the test subjects by administering 3 mg of […] (Thermo Scientific Pierce Protein Research Products, Waltham, Mass., U.S.A.) (TNBS) in 50% ethanol via a catheter inserted intrarectally from the test subject's anus. Control mice received the same volume of 50% ethanol without the TNBS. […] Five mice from both groups were sacrificed 4 days post-TNBS-induced challenge.
Body weight for all test subjects was measured every day. FIG. 27 Serum samples were tested for interferon-gamma by ELISA (Millipore, Inc., Billerica, Mass., U.S.A.). […]
The colons of the sacrificed test subjects at day 4 and day 10 were removed and measured.

TNBS-induced colitis [4] = assay: Established colitis model (TNBS); type: in vivo, mice; conditions: single 50 nM dose ip on days 6, 7 and 8 post-TNBS
Protocol: In an effort to examine the ability of the novel ligands of native ghrelin of the instant application to reduce inflammation of the colon in vivo, inflammation was induced in a mouse model and thereafter said subjects were treated with a novel ghrelin analogue of the instant application.
as §5
Acute colon inflammation was induced in the test subjects by administering 3 mg of […] (Thermo Scientific Pierce Protein Research Products, Waltham, Mass., U.S.A.) (TNBS) in 50% ethanol via a catheter inserted intrarectally from the test subject's anus on the day the study commenced and then again approximately 7 days thereafter. Control mice received the same volume of 50% ethanol without the TNBS.
Body weight for all test subjects was measured every day. Macroscopic evaluation of colon inflammation was performed on the 9th day after inducing TNBS-induced colitis.
The colons of the sacrificed test subjects were removed and measured.

[5] = test system: mouse peritoneal macrophages; assay: LPS-stimulated cytokine secretion from mouse peritoneal macrophages; type: cell-based; conditions: in vitro
Protocol: Mouse peritoneal macrophages were elicited by intraperitoneal (i. p.) injection of 2 ml of 4% Brewer's thioglycollate medium (Difco, Detroit, Mich., U.S.A.) into male BALB/c mice aged 6 to 10 weeks (Ace Animals, Inc., Boyertown, Pa., U.S.A.). Peritoneal exudate cells were obtained 72 hours after injection by peritoneal lavage with ice-cold RPMI 1640 medium (Sigma-Aldrich, St. Louis, Mo., U.S.A.). Peritoneal exudate cells containing lymphocytes and macrophages were washed twice and re-suspended in ice-cold RPMI 1640 medium supplemented with 2% heat-inactivated fetal calf serum “FCS” (Life Technologies, Rockville, Md., U.S.A.) and were seeded in flat-bottomed 96-well microtiter plates (Corning Glass, Corning, N.Y., U.S.A.) at 8×10^4 cells per well in a final volume 200 μl. The cells were incubated at 37° C. for 2 hours to adhere.

Substance: (Aib^2, Glu^3(NH-hexyl))hGhrelin(1-28)-NH2 (GXEFLSPEHQRVQQRKESKKPPAKLQPR; Aib2, Glu3 NH-hexyl, C-terminal amide; Ghrelin Analogue) [Example #13]
- change of serum IL-10 relative to the nephrectomy/saline group (serum cytokines): significant increase
- serum GM-CSF (serum cytokines): 7.01+/−2.05
- serum IL-1-α (second listing) (serum cytokines): 57.37+/−7.48
- serum IL-1α (serum cytokines): 3.50+/−2.49
- serum IL-6 (serum cytokines): 83.65+/−21.71
- serum IL-10 (anti-inflammatory cytokine) (serum cytokines): 594.83+/−55.22
- serum TNF-α (serum cytokines): 47.04+/−3.36
- LPS-stimulated IL-6 secretion [1]: inhibition
- LPS-stimulated IL-10 secretion [1]: inhibition
- LPS-stimulated TNF-α secretion [1]: inhibition

Substance: H-Inp-D-Bal-D-Trp-Phe-Apc-NH2 [Example #27]
- lipolysis in the adipocytes induced by TNF-α (glycerol content) (3T3-L1 adipocytes): significantly inhibited
- anti-inflammatory effect on LPS-induced endotoxemia (TNF-α, IL-6, IL-10 and IL-13 expression in vivo) (LPS-induced endotoxemia): inhibition of TNF-α, IL-6, IL-10 and IL-13 expression
- change of serum IL-10 relative to the nephrectomy/saline group (serum cytokines): significant increase
- serum GM-CSF (serum cytokines): 8.01+/−2.83
- serum IL-1-α (second listing) (serum cytokines): 46.58+/−9.87
- serum IL-1α (serum cytokines): 3.84+/−1.62
- serum IL-6 (serum cytokines): 98.41+/−36.66
- serum IL-10 (anti-inflammatory cytokine) (serum cytokines): 419.26+/−38.71
- serum TNF-α (serum cytokines): 45.81+/−6.23
- expression of IL1-RI in the brainstem [2]: 0.75+/−0.18
- transcript levels of IL-1R in the hypothalamus [2]: 0.77+/−0.17
- transcript levels of IL-1β in the brainstem [2]: 1.34+/−0.46
- transcript levels of IL-1β in the hypothalamus [2]: 1.54+/−0.42
- IFN-γ production in vivo (TNBS-induced colitis [3]; 5 nmolar and 50 nmolar dose ip approximately 12 hours after TNBS, serum ELISA, day 4): inhibited
- colon size (length) of sacrificed test subjects (TNBS-induced colitis [3]; day 4 and day 10, 5 nM or 50 nM dose ip): smaller colons
- colitis in vivo (TNBS-induced colitis [4]): effectively inhibited
- colon size (length) of sacrificed test subjects (TNBS-induced colitis [4]): smaller colons
- LPS-stimulated IL-6 secretion [1]: inhibition
- LPS-stimulated IL-10 secretion [1]: inhibition
- LPS-stimulated TNF-α secretion [1]: inhibition
- LPS-stimulated IL-6 secretion [5]: inhibition
- LPS-stimulated TNF-α secretion [5]: inhibition

Substance: H-Gly-Ser-Ser-Phe-Leu-Ser-Pro-Glu-His-Gln-Arg-Val-Gln-Gln-Arg-Lys-Glu-Ser-Lys-Lys-Pro-Pro-Ala-Lys-Leu-Gln-Pro-Arg-NH2 [hGhrelin(1-28)-NH2, reference compound]
- serum GM-CSF (serum cytokines): 5.24+/−1.93
- serum IL-1-α (second listing) (serum cytokines): 49.52+/−10.03
- serum IL-1α (serum cytokines): 3.92+/−2.39
- serum IL-6 (serum cytokines): 52.42+/−18.68
- serum IL-10 (anti-inflammatory cytokine) (serum cytokines): 242.41+/−27.51
- serum TNF-α (serum cytokines): 34.71+/−14.00
- expression of IL1-RI in the brainstem [2]: 0.72+/−0.12
- transcript levels of IL-1R in the hypothalamus [2]: 0.78+/−0.26
- transcript levels of IL-1β in the brainstem [2]: 1.27+/−0.60
- transcript levels of IL-1β in the hypothalamus [2]: 0.98+/−0.46

From US8871706B2, “Method for inhibiting inflammation and pre-inflammatory cytokine/chemokine expression using a ghrelin analogue” (Ipsen Pharma S.A.S., priority 2007, dated 2014)
